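How tested: cells in 96-well plates exposed to compound for 48 hours at five concentrations. Abbreviation: GI50, concentration required for 50% inhibition of growth. The concentration for full growth arrest is given as TGI.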

What all share (assay): DTP human tumour cell line panel, 48 h
The test system of assay [1] is BT-549 breast.
Assay [2] relates to CCRF-CEM leukemia.
Assay [3] deals with SK-MEL-28 melanoma.
In assay [4] the test system is SF-539 CNS.
The subject of assay [5] is OVCAR-8 ovarian.
In assay [6] the test system is T-47D breast.
The subject of assay [7] is UO-31 renal.
For assay [8], the system named is NCI-H226 lung.
The subject of assay [9] is TK-10 renal.
Assay [10] concerns ACHN renal.

One may read the GI50 as the concentration that inhibits growth by half. Usually TGI stands for the concentration at which net growth stops. The low end stands for more potent growth arrest, the high end for less potent growth arrest. Regarding `Cc1nc(N(C)C)nc(-c2cccc(-c3ccn(CCN(C)C)n3)c2)c1C`, the GI50 in assay [1], in assay [2], in assay [3], in assay [4], in assay [5] and in assay [6] was over 20 µM in each case. Also, the GI50 in assay [7] was 9.63 µM; in [8], over 20 µM; in assay [9], over 20 µM; in assay [10] it was over 20 µM. The TGI in assay [1], in [2], in [3], in assay [4], in assay [5] and in [6] was over 20 µM in each case. Also, the TGI in assay [7], in [8], in [9] and in assay [10] was over 20 µM each time.

As to `O=C1/C=C/[C@@H](O)[C@@H]2C[C@@H](O)C[C@H]2/C=C/CCCCO1`, the GI50 is 0.607 µM in assay [1]; 0.595 µM in [2]; 0.28 µM in [3]; 0.383 µM in assay [4]; 0.516 µM in assay [5]; 1.14 µM in assay [6]. For the same compound, the GI50 in [7] was 0.304 µM; in assay [8] it was 0.224 µM; in assay [9], 0.388 µM; in assay [10], 0.43 µM. For the same compound, the TGI in [1] is over 100 µM; in assay [4], over 100 µM; in assay [5], over 100 µM; in [6], 4.43 µM; in assay [7], over 38.1 µM; in assay [9] it was 26.2 µM. For the same compound, in assay [10], the TGI was over 23.6 µM.

Regarding `COC(=O)c1cccc(COc2ccc([N+](=O)[O-])cc2Cl)c1`, the TGI in assay [1], in [2], in assay [3], in assay [4], in [5] and in [6] was over 100 µM each time. Moreover, the TGI in assay [7], in assay [8], in assay [9] and in assay [10] was over 100 µM in each case.

In the case of `c1ccc(Oc2cnc3ccccc3n2)cc1`, the GI50 in [1] was 12 µM; in [2], over 100 µM; in assay [3] it was over 100 µM; in assay [4], 92.3 µM; in assay [5], over 100 µM; in [6], 75.5 µM. The GI50 in [7] was 39.1 µM; in [8] it was 28.1 µM; in [9], 53.9 µM; in assay [10], over 100 µM. Further, the TGI was 68.3 µM in assay [1]; over 100 µM in [2]; over 100 µM in assay [3]; over 100 µM in assay [4]; over 100 µM in assay [5]; over 100 µM in assay [6]. Further, the TGI in [7], in assay [8], in assay [9] and in assay [10] was over 100 µM in each case.

As for `COc1cc(Nc2nccc(-c3cnn4ncccc34)n2)cc(OC)c1`, the 50% growth inhibitory concentration (GI50) in assay [1] is 0.0893 µM; in assay [2], 0.0668 µM; in [3], 0.0726 µM; in assay [4], 0.0637 µM; in assay [5], 0.0802 µM; in [6] it was 0.122 µM. Further, the concentration for 50% growth inhibition (GI50) is 0.055 µM in [7], 0.0577 µM in [8], 0.0982 µM in [9] and 0.0565 µM in assay [10]. Besides, the TGI was 2.19 µM in assay [1]; 0.38 µM in [3]; 0.257 µM in [4]; over 12.7 µM in assay [5]; 1.55 µM in [6]; 0.196 µM in assay [7]. The total growth inhibition concentration (TGI) is 0.324 µM in [8], 0.406 µM in assay [9] and 4.16 µM in assay [10].

For `O=P1(NCCCl)OCCC(OO)N1CCCl` (stereo not given), the TGI in assay [1] was over 100 µM; in assay [2] it was over 52.7 µM; in assay [3] it was 39.4 µM; in assay [4], 33 µM; in assay [5], over 100 µM; in [6], 17.7 µM. Also, the TGI in [7] was over 100 µM; in assay [8], over 100 µM; in assay [9], 39.8 µM; in assay [10], 33 µM.

As for `Nc1nc(N)c(N=Nc2ccc([As](=O)(O)O)c(O)c2)c(N)n1`, the TGI in assay [1] is over 100 µM; in assay [2] it was over 19.7 µM; in assay [3], over 100 µM; in assay [4] it was over 56.8 µM; in [5], over 100 µM; in assay [6], over 100 µM. The concentration for total growth inhibition (TGI) was over 100 µM in assay [7], over 100 µM in assay [8], over 51.8 µM in assay [9] and over 100 µM in assay [10].

Consider `O=C(/C=C/c1ccco1)c1cccc(Nc2nc(Nc3ccccc3)nc(Nc3ccccc3)n2)c1`, for which the GI50 in [1] is 19 µM; in assay [2] it was 3.07 µM; in assay [3], 23.7 µM; in assay [4], 44.5 µM; in assay [5], 10 µM; in assay [6], 3.61 µM. The GI50 was 3.97 µM in [7], 18.3 µM in assay [8], 55.3 µM in assay [9] and 30.5 µM in assay [10]. The TGI in assay [1] is over 82.9 µM; in assay [2] it was over 24.1 µM; in [3], over 100 µM; in assay [4], over 100 µM; in assay [5], over 83.2 µM; in assay [6], over 100 µM. For the same compound, the TGI in assay [7] is over 69.6 µM; in assay [8], over 82 µM; in [9], over 100 µM; in assay [10], over 100 µM.

Regarding `O=C1COCCN1c1ccc(NCc2cn(Cc3ccc(F)cc3)c3ccccc23)cc1`, the GI50 in assay [1] is 3.47 µM; in assay [2], 5.4 µM; in assay [3], 15.4 µM; in [4], 7.36 µM; in assay [5], 4.3 µM; in assay [6], 0.0522 µM. The GI50 is 2.42 µM in assay [7], 0.0593 µM in assay [8], 0.0456 µM in [9] and 2.91 µM in assay [10]. Also, the concentration for total growth inhibition (TGI) in assay [1] is 22.4 µM; in assay [2], over 96.4 µM; in assay [3], 77.9 µM; in assay [4], 33.1 µM; in assay [5], over 86.8 µM; in assay [7], 18.2 µM. Also, the TGI in assay [8] was 0.275 µM; in [9], 0.636 µM; in assay [10], 31.4 µM.

For the origin of these results see PubChem BioAssay (NCI).
